Laboratory results from ChEMBL document CHEMBL3885861, “Open TG-GATES”.

Species on record: Rattus norvegicus
Test: Open TG-GATES - Regimen: Daily Repeat
Type: toxicity, organism-based, Sprague-Dawley
Design: regimen Daily Repeat, gender Male, age 6 weeks
Conditions: in vivo, po, 30 mg/kg, route gavage, dose level High; for APTT / Bas / Eos / Fbg / Hb / Ht / Lym / MCH / MCHC / MCV / Mono / Neu / PT / Plat / RBC / Ret / WBC: tissue Blood; for KIDNEY_L / KIDNEY_R / KIDNEY_TOTAL: tissue Kidney; for LIVER: tissue Liver; for A/G / ALP / ALT / AST / BUN / CRE / Ca / Cl / DBIL / GLC / IP / K / LDH / Na / PL / RALB / TBIL / TC / TG / TP / gamma-GTP: tissue Plasma

For C=CCO [ALLYL ALCOHOL], the TERMINAL_BW (72 h, time 3 day) was 229 g, the APTT (72 h, time 3 day) was 18.4 s and the Bas (72 h, time 3 day) was 0%. The Eos (72 h, time 3 day) was 0.8%, the Fbg (72 h, time 3 day) was 258.6 mg/dL and the Hb (72 h, time 3 day) was 13.4 g/dL. It also gave a Ht (72 h, time 3 day) of 39.4%, a Lym (72 h, time 3 day) of 80% and an MCH (72 h, time 3 day) of 20.9 pg. It also gave an MCHC (72 h, time 3 day) of 33.9%, an MCV (72 h, time 3 day) of 61.7 fL and a Mono (72 h, time 3 day) of 3.4%. The Neu (72 h, time 3 day) was 15.2%, the PT (72 h, time 3 day) was 11.7 s and the Plat (72 h, time 3 day) was 142.1 x10_4/uL. It also gave an RBC (72 h, time 3 day) of 639.6 x10_4/ul, a Ret (72 h, time 3 day) of 4.7% and a WBC (72 h, time 3 day) of 128.3 x10_2/uL. The KIDNEY_L (72 h, time 3 day) was 1 g, the KIDNEY_R (72 h, time 3 day) was 1 g and the KIDNEY_TOTAL (72 h, time 3 day) was 2 g. The LIVER (72 h, time 3 day) was 11.1 g, the A/G (72 h, time 3 day) was 1.5 and the ALP (72 h, time 3 day) was 874.6 IU/L. For the same molecule, the ALT (72 h, time 3 day) was 39.6 IU/L, the AST (72 h, time 3 day) was 71 IU/L and the BUN (72 h, time 3 day) was 13.6 mg/dL. The CRE (72 h, time 3 day) was 0.4 mg/dL, the Ca (72 h, time 3 day) was 10.5 mg/dL and the Cl (72 h, time 3 day) was 103.2 meq/L. The DBIL (72 h, time 3 day) was 0.058 mg/dL, the GLC (72 h, time 3 day) was 206.2 mg/dL and the IP (72 h, time 3 day) was 7.4 mg/dL. The K (72 h, time 3 day) was 3.5 meq/L, the LDH (72 h, time 3 day) was 221.2 IU/L and the Na (72 h, time 3 day) was 141.2 meq/L. For the same molecule, the PL (72 h, time 3 day) was 125.4 mg/dL, the RALB (72 h, time 3 day) was 3 g/dL and the TBIL (72 h, time 3 day) was 0.1 mg/dL. For the same molecule, the TC (72 h, time 3 day) was 73.2 mg/dL, the TG (72 h, time 3 day) was 59 mg/dL and the TP (72 h, time 3 day) was 5 g/dL. For the same molecule, the gamma-GTP (72 h, time 3 day) was 1 IU/L, the TERMINAL_BW ([…], time 7 day) was 238.1 g and the TERMINAL_BW ([…], time 14 day) was 285 g. For the same molecule, the TERMINAL_BW ([…], time 28 day) was 374.2 g, the APTT ([…], time 7 day) was 21.6 s and the Bas ([…], time 7 day) was 0%. For the same molecule, the Eos ([…], time 7 day) was 0.8%, the Fbg ([…], time 7 day) was 334.8 mg/dL and the Hb ([…], time 7 day) was 14 g/dL. The Ht ([…], time 7 day) was 40.7%, the Lym ([…], time 7 day) was 74% and the MCH ([…], time 7 day) was 20.6 pg. It also gave an MCHC ([…], time 7 day) of 34.4%, an MCV ([…], time 7 day) of 60.2 fL and a Mono ([…], time 7 day) of 5.6%. The Neu ([…], time 7 day) was 18.2%, the PT ([…], time 7 day) was 13.1 s and the Plat ([…], time 7 day) was 146.5 x10_4/uL. It also gave an RBC ([…], time 7 day) of 676 x10_4/ul, a Ret ([…], time 7 day) of 3.1% and a WBC ([…], time 7 day) of 193.8 x10_2/uL. The APTT ([…], time 14 day) was 19.2 s, the Bas ([…], time 14 day) was 0% and the Eos ([…], time 14 day) was 0.8%. The Fbg ([…], time 14 day) was 250.6 mg/dL, the Hb ([…], time 14 day) was 13.7 g/dL and the Ht ([…], time 14 day) was 40%. The Lym ([…], time 14 day) was 70.2%, the MCH ([…], time 14 day) was 19.6 pg and the MCHC ([…], time 14 day) was 34.2%. The MCV ([…], time 14 day) was 57.3 fL, the Mono ([…], time 14 day) was 3.8% and the Neu ([…], time 14 day) was 24.8%. For the same molecule, the PT ([…], time 14 day) was 12.4 s, the Plat ([…], time 14 day) was 192.6 x10_4/uL and the RBC ([…], time 14 day) was 698 x10_4/ul. The Ret ([…], time 14 day) was 5.4%, the WBC ([…], time 14 day) was 181.3 x10_2/uL and the APTT ([…], time 28 day) was 20.5 s. The Bas ([…], time 28 day) was 0%, the Eos ([…], time 28 day) was 1.2% and the Fbg ([…], time 28 day) was 218.6 mg/dL. The Hb ([…], time 28 day) was 15.2 g/dL, the Ht ([…], time 28 day) was 44.1% and the Lym ([…], time 28 day) was 78%. It also gave an MCH ([…], time 28 day) of 18.7 pg, an MCHC ([…], time 28 day) of 34.5% and an MCV ([…], time 28 day) of 54.3 fL. The Mono ([…], time 28 day) was 2.8%, the Neu ([…], time 28 day) was 17.2% and the PT ([…], time 28 day) was 12.1 s. It also gave a Plat ([…], time 28 day) of 107.4 x10_4/uL, an RBC ([…], time 28 day) of 813.2 x10_4/ul and a Ret ([…], time 28 day) of 2.8%. The WBC ([…], time 28 day) was 109.1 x10_2/uL, the KIDNEY_L ([…], time 7 day) was 1 g and the KIDNEY_R ([…], time 7 day) was 1.1 g. For the same molecule, the KIDNEY_TOTAL ([…], time 7 day) was 2.1 g, the KIDNEY_L ([…], time 14 day) was 1.2 g and the KIDNEY_R ([…], time 14 day) was 1.2 g. For the same molecule, the KIDNEY_TOTAL ([…], time 14 day) was 2.4 g, the KIDNEY_L ([…], time 28 day) was 1.3 g and the KIDNEY_R ([…], time 28 day) was 1.3 g. The KIDNEY_TOTAL ([…], time 28 day) was 2.6 g, the LIVER ([…], time 7 day) was 12.6 g and the LIVER ([…], time 14 day) was 14.4 g. For the same molecule, the LIVER ([…], time 28 day) was 16.7 g, the A/G ([…], time 7 day) was 1.2 and the ALP ([…], time 7 day) was 938.4 IU/L. It also gave an ALT ([…], time 7 day) of 195.4 IU/L, an AST ([…], time 7 day) of 610 IU/L and a BUN ([…], time 7 day) of 11.4 mg/dL. It also gave a CRE ([…], time 7 day) of 0.4 mg/dL, a Ca ([…], time 7 day) of 10.6 mg/dL and a Cl ([…], time 7 day) of 102.4 meq/L. It also gave a DBIL ([…], time 7 day) of 0.088 mg/dL, a GLC ([…], time 7 day) of 182.4 mg/dL and an IP ([…], time 7 day) of 7 mg/dL. The K ([…], time 7 day) was 3.7 meq/L, the LDH ([…], time 7 day) was 310.6 IU/L and the Na ([…], time 7 day) was 140.6 meq/L. For the same molecule, the PL ([…], time 7 day) was 130.8 mg/dL, the RALB ([…], time 7 day) was 3 g/dL and the TBIL ([…], time 7 day) was 0.2 mg/dL. The TC ([…], time 7 day) was 72.6 mg/dL, the TG ([…], time 7 day) was 62.8 mg/dL and the TP ([…], time 7 day) was 5.6 g/dL. It also gave a gamma-GTP ([…], time 7 day) of 2.6 IU/L, an A/G ([…], time 14 day) of 1.3 and an ALP ([…], time 14 day) of 758.4 IU/L. The ALT ([…], time 14 day) was 42.8 IU/L, the AST ([…], time 14 day) was 85.6 IU/L and the BUN ([…], time 14 day) was 14.2 mg/dL. The CRE ([…], time 14 day) was 0.4 mg/dL, the Ca ([…], time 14 day) was 10.7 mg/dL and the Cl ([…], time 14 day) was 101.8 meq/L. The DBIL ([…], time 14 day) was 0.07 mg/dL, the GLC ([…], time 14 day) was 202.6 mg/dL and the IP ([…], time 14 day) was 6.7 mg/dL. The K ([…], time 14 day) was 3.5 meq/L, the LDH ([…], time 14 day) was 234.8 IU/L and the Na ([…], time 14 day) was 141 meq/L. It also gave a PL ([…], time 14 day) of 140.8 mg/dL, an RALB ([…], time 14 day) of 3.4 g/dL and a TBIL ([…], time 14 day) of 0.1 mg/dL. For the same molecule, the TC ([…], time 14 day) was 70.2 mg/dL, the TG ([…], time 14 day) was 69.6 mg/dL and the TP ([…], time 14 day) was 5.9 g/dL. It also gave a gamma-GTP ([…], time 14 day) of 1.4 IU/L, an A/G ([…], time 28 day) of 1.2 and an ALP ([…], time 28 day) of 615.8 IU/L. The ALT ([…], time 28 day) was 39.2 IU/L, the AST ([…], time 28 day) was 64 IU/L and the BUN ([…], time 28 day) was 16.8 mg/dL. It also gave a CRE ([…], time 28 day) of 0.5 mg/dL, a Ca ([…], time 28 day) of 10.5 mg/dL and a Cl ([…], time 28 day) of 102.6 meq/L. The DBIL ([…], time 28 day) was 0.068 mg/dL, the GLC ([…], time 28 day) was 220.6 mg/dL and the IP ([…], time 28 day) was 5.6 mg/dL. For the same molecule, the K ([…], time 28 day) was 3.5 meq/L, the LDH ([…], time 28 day) was 188.2 IU/L and the Na ([…], time 28 day) was 139.6 meq/L. It also gave a PL ([…], time 28 day) of 135.6 mg/dL, an RALB ([…], time 28 day) of 3.3 g/dL and a TBIL ([…], time 28 day) of 0.1 mg/dL. It also gave a TC ([…], time 28 day) of 65.6 mg/dL, a TG ([…], time 28 day) of 98.6 mg/dL and a TP ([…], time 28 day) of 6 g/dL. It also gave a gamma-GTP ([…], time 28 day) of 1 IU/L.
